According to patent publication US10206394B2, “Herbicidal compounds” (Syngenta Participations AG, priority 2014, dated 2019):
Like-named read-outs stand apart in the source and are kept apart here.

What was measured:
Assay in all cases: Glasshouse assay for herbicidal activity (pre- and post-emergence), percentage phytotoxicity
Format in all cases: in vivo
[1] = system: Alopecurus myosuroides (ALOMY); settings: Alopecurus myosuroides
Protocol: (§1) Test—Glasshouse Assay for Herbicidal Activity
(§2) Seeds of a variety of monocotyledonous and dicotyledonous test plants are sown in standard soil in pots. The plants are cultivated for one day (for pre-emergence (PRE)) or for about 12 days (for post-emergence (POST)) under controlled conditions in a glasshouse (warm climate species at 24/18° C., cool climate species at 20/16° C., both at day/night; 16 hours light; 65% humidity).
(§3) The test plants are then grown on, in a glasshouse (greenhouse) under controlled conditions (warm climate species at 24/18° C., cool climate species at 20/16° C., both at day/night; 16 hours light; 65% humidity) and are watered twice daily. 15 days after application of the test herbicide (15 DAA) (for post-emergence), and 20 days after application of the test herbicide (20 DAA) (for pre-emergence), the test plants are evaluated visually, and an assessed percentage phytotoxicity score is given for each herbicidal application on each plant species (with 100%=total damage to plant; 0%=no damage to plant).
(§4) The plant species tested are as follows: Alopecurus myosuroides (ALOMY), Avena fatua (AVEFA), Lolium perenne (LOLPE), Echinochloa crus-galli (ECHCG).

Avena fatua (AVEFA) = settings: Avena fatua
Protocol: as §1, §2, §3, §4

[2] = system: Echinochloa crus-galli (ECHCG); settings: Echinochloa crus-galli
Protocol: as §1, §2, §3, §4

Lolium perenne (LOLPE) = settings: Lolium perenne
Protocol: as §1, §2, §3, §4

[3] = post-emergence, 360 h, Rate 250 g/ha, post-emergence, assessed visually 15 DAA, 100%=total damage, 0%=no damage, read-out: Post-emergence herbicidal activity (percentage phytotoxicity) ALOMY POST
[4] = pre-emergence, 480 h, Rate 250 g/ha, pre-emergence, assessed visually 20 DAA, 100%=total damage, 0%=no damage, read-out: Pre-emergence herbicidal activity (percentage phytotoxicity) ALOMY PRE
[5] = post-emergence, 360 h, Rate 250 g/ha, post-emergence, assessed visually 15 DAA, 100%=total damage, 0%=no damage, read-out: Post-emergence herbicidal activity (percentage phytotoxicity) AVEFA POST
[6] = pre-emergence, 480 h, Rate 250 g/ha, pre-emergence, assessed visually 20 DAA, 100%=total damage, 0%=no damage, read-out: Pre-emergence herbicidal activity (percentage phytotoxicity) AVEFA PRE
[7] = post-emergence, 360 h, Rate 250 g/ha, post-emergence, assessed visually 15 DAA, 100%=total damage, 0%=no damage, read-out: Post-emergence herbicidal activity (percentage phytotoxicity) ECHCG POST
[8] = pre-emergence, 480 h, Rate 250 g/ha, pre-emergence, assessed visually 20 DAA, 100%=total damage, 0%=no damage, read-out: Pre-emergence herbicidal activity (percentage phytotoxicity) ECHCG PRE
[9] = post-emergence, 360 h, Rate 250 g/ha, post-emergence, assessed visually 15 DAA, 100%=total damage, 0%=no damage, read-out: Post-emergence herbicidal activity (percentage phytotoxicity) LOLPE POST
[10] = pre-emergence, 480 h, Rate 250 g/ha, pre-emergence, assessed visually 20 DAA, 100%=total damage, 0%=no damage, read-out: Pre-emergence herbicidal activity (percentage phytotoxicity) LOLPE PRE
[11] = post-emergence, 360 h, 250 g/ha, post-emergence, 15 DAA, visual assessment (100%=total damage, 0%=no damage), read-out: Post-emergence herbicidal activity (percentage phytotoxicity) ALOMY POST
[12] = pre-emergence, 480 h, 250 g/ha, pre-emergence, 20 DAA, visual assessment (100%=total damage, 0%=no damage), read-out: Pre-emergence herbicidal activity (percentage phytotoxicity) ALOMY PRE
[13] = post-emergence, 360 h, 250 g/ha, post-emergence, 15 DAA, visual assessment (100%=total damage, 0%=no damage), read-out: Post-emergence herbicidal activity (percentage phytotoxicity) AVEFA POST
[14] = pre-emergence, 480 h, 250 g/ha, pre-emergence, 20 DAA, visual assessment (100%=total damage, 0%=no damage), read-out: Pre-emergence herbicidal activity (percentage phytotoxicity) AVEFA PRE
[15] = post-emergence, 360 h, 250 g/ha, post-emergence, 15 DAA, visual assessment (100%=total damage, 0%=no damage), read-out: Post-emergence herbicidal activity (percentage phytotoxicity) ECHCG POST
[16] = pre-emergence, 480 h, 250 g/ha, pre-emergence, 20 DAA, visual assessment (100%=total damage, 0%=no damage), read-out: Pre-emergence herbicidal activity (percentage phytotoxicity) ECHCG PRE
[17] = post-emergence, 360 h, 250 g/ha, post-emergence, 15 DAA, visual assessment (100%=total damage, 0%=no damage), read-out: Post-emergence herbicidal activity (percentage phytotoxicity) LOLPE POST
[18] = pre-emergence, 480 h, 250 g/ha, pre-emergence, 20 DAA, visual assessment (100%=total damage, 0%=no damage), read-out: Pre-emergence herbicidal activity (percentage phytotoxicity) LOLPE PRE

SMILES	pest or weed control at 250 g/ha [1, 3]	pest or weed control at 250 g/ha [1, 4]	pest or weed control at 250 g/ha (Avena fatua (AVEFA); [5])	pest or weed control at 250 g/ha (Avena fatua (AVEFA); [6])	pest or weed control at 250 g/ha [2, 7]	pest or weed control at 250 g/ha [2, 8]	pest or weed control at 250 g/ha (Lolium perenne (LOLPE); [9])	pest or weed control at 250 g/ha (Lolium perenne (LOLPE); [10])	pest or weed control at 250 g/ha [1, 11]	pest or weed control at 250 g/ha [1, 12]	pest or weed control at 250 g/ha (Avena fatua (AVEFA); [13])	pest or weed control at 250 g/ha (Avena fatua (AVEFA); [14])	pest or weed control at 250 g/ha [2, 15]	pest or weed control at 250 g/ha [2, 16]	pest or weed control at 250 g/ha (Lolium perenne (LOLPE); [17])	pest or weed control at 250 g/ha (Lolium perenne (LOLPE); [18])
CC#Cc1cc(C)c(C2C(=O)CC(CC(=O)NCC(C)(C)C)C2=O)c(C)c1 (stereo not shown) [Compound A65]	90%	100%	90%	70%	100%	100%	80%	90%								
COc1cccc(CNC(=O)CC2CC(=O)C(c3c(C)cc(C)cc3C)C2=O)c1 (stereo not shown) [Compound B11]									70%	70%	70%	70%	70%	90%	80%	90%
Cc1cc(-c2ncc(Cl)s2)cc(C)c1C1C(=O)CC(CC(=O)NC(C)(C)C)C1=O (stereo not shown) [Compound B24]									90%	80%	80%	80%	100%	100%	90%	100%
Cc1cc(C)c(C2C(=O)CC(CC(=O)NCc3ccccc3Cl)C2=O)c(C)c1 (stereo not shown) [Compound B17]									40%	20%	50%	0%	70%	90%	70%	90%
Cc1cc(-c2ccc(Cl)nn2)cc(C)c1C1C(=O)CC(CC(=O)NCc2ncccc2Cl)C1=O (stereo not shown) [Compound A155]	50%	40%	70%	100%	90%	70%	70%	70%								
